The values that follow come from patent US9724347B2, “1-pyrazolyl-3-(4-((2-anilinopyrimidin-4-yl)oxy)napththalen-1-yl) ureas as P38 MAP knase inhibitors” (Respivert Ltd., priority 2011, dated 2017).

Series [1] addresses p38 MAPKα isoform (MAPK14) (Homo sapiens (Human), UniProt Q16539). Briefly: p38 MAPKα enzyme inhibition (FRET, Z-LYTE). It counts as biochemical.
The target of the next series is p38MAPKγ (MAPK12) (Homo sapiens (Human), UniProt P53778). Put plainly: p38 MAPKγ enzyme inhibition (FRET, Z-LYTE). In kind it is biochemical. In short, it runs like this: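 Z-LYTE FRET kinase format on donor/acceptor-labeled synthetic peptide; protease development 1 hr cleaves only non-phosphorylated peptide. Phosphorylation derived from coumarin/fluorescein emission ratio, low ratio indicating high phosphorylation.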

The target of another series is GSK 3α enzyme isoform (Homo sapiens (Human), UniProt P49840). Put plainly: GSK 3α enzyme inhibition (FRET, Z-LYTE). In kind it is biochemical. To be noted: read-out: IC50 Values for Enzyme Inhibition GSK3α. In short, it runs like this: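 Human GSK3α (500 ng/mL stock) was preincubated 2 h at RT with compound (stocks 4, 0.4, 0.04 or 0.004 μg/mL), then given FRET peptide (8 μM stock) and ATP (40 μM stock) for 1 h. After 1 h protease development, the coumarin/fluorescein emission ratio gave phosphorylation level.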

Series [2] has as its system ICAM-1 expression in BEAS2B cells. Briefly: Poly I:C-induced ICAM-1 expression in BEAS2B cells. The conditions noted are these: Homo sapiens, BEAS-2B, read-out: PolyIC/ICAM1 IC50 (BEAS2B). It counts as cell-based, human. An outline of the steps: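 BEAS2B human bronchial epithelial cells pre-incubated 2 h with compound, then transfected with 1 μg/mL poly I:C plus Oligofectamine. After 18 h, surface ICAM-1 measured by cell-based ELISA (OD450–655), normalised to crystal violet cell count (OD595). Inhibition calculated against vehicle control.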

The subject of series [3] is HRV IL-8 release (BEAS2B). Briefly: Rhinovirus-induced IL-8 release in BEAS2B cells. In kind it is cell-based, human. To be noted: at 0.04 μg/mL. As for the experimental part: Human rhinovirus RV16 was obtained from the American Type Culture Collection (Manassas, Va.). Viral stocks were generated by infecting Hela cells with HRV until 80% of the cells were cytopathic.
BEAS2B cells were infected with HRV at an MOI of 5 and incubated for 2 hr at 33° C. with gentle shaking for to promote absorption. The cells were then washed with PBS, fresh media added and the cells were incubated for a further 72 hr. The supernatant was collected for assay of IL-8 concentrations using a Duoset ELISA development kit (R&D systems, Minneapolis, Minn.).
The level of cell surface ICAM-1 expression was determined by cell-based ELISA. At 72 hr after infection, cells were fixed with 4% formaldehyde in PBS. After quenching endogenous peroxidase by adding 0.1% sodium azide and 1% hydrogen peroxide, wells were washed with wash-buffer (0.05% Tween in PBS: PBS-Tween). […] The ICAM-1 signal was detected by adding substrate and reading at 450 nm with a reference wavelength of 655 nm using a spectrophotometer. The wells were then washed with PBS-Tween and total cell numbers in each well were determined by reading absorbance at 595 nm after Crystal Violet staining and elution by 1% SDS solution. The measured OD450-655 readings were corrected for cell number by dividing with the OD595 reading in each well. […]

Another series has as its system HRV16. Briefly: HRV16 induced CPE in MRC5 cells. In kind it is cell-based, human rhinovirus. The protocol: The supernatants were aspirated, and then fresh media added followed by incubation for 4 days. Where appropriate, cells were pre-incubated with compound or DMSO for 2 hr, and the compounds and DMSO added again after washout of the virus.
The percentage inhibition for each well was calculated. The IC50 value was calculated from the concentration-response curve generated by the serial dilutions of the test compounds.

The subject of another series is d-U937 cells. Briefly: Cell viability: MTT assay. In kind it is cell-based, human. To be noted: 1 μg/mL. In short, it runs like this: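 Differentiated U937 cells exposed to compound at 1 or 10 μg/mL final, either 4 h in 5% FCS RPMI1640 or 24 h in 10% FCS RPMI1640. After medium replacement, MTT added 1 h, formazan dissolved in DMSO, A550 read. % viability loss vs 0.5% DMSO vehicle; apparent viability gain shown as negative %.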

The subject of a further series is PBMC cells. Put plainly: Cell mitosis assay. In kind it is cell-based, human. The protocol:
Peripheral blood mononucleocytes (PBMCs) from healthy subjects were separated from whole blood (Quintiles, London, UK) using a density gradient (Histopaque®-1077, Sigma-Aldrich, Poole, UK). The PBMCs (3 million cells per sample) were subsequently treated with 2% PHA (Sigma-Aldrich, Poole, UK) for 48 hr, followed by a 20 hr exposure to varying concentrations of test compounds. At 2 hr before collection, PBMCs were treated with demecolcine (0.1 μg/mL; Invitrogen, Paisley, UK,) to arrest cells in metaphase. To observe mitotic cells, PBMCs were permeabilised and fixed by adding Intraprep (50 μL; Beckman Coulter, France), and stained with anti-phospho-histone 3 ([…]; #9701; Cell Signalling, Danvers, Mass.) and propidium iodide (1 mg/mL; Sigma-Aldrich, Poole, UK,) as previously described (Muehlbauer P. A. and Schuler M. J., Mutation Research, 2003, 537:117-130). Fluorescence was observed using an ATTUNE flow cytometer (Invitrogen, Paisley, UK), gating for lymphocytes.

The structures appear in SMILES notation. pIC50: −log10 of the molar value. Marks after values point to notes of the source that are not given here. Bounds are passed on as bounds.

Sequence of GSK 3α enzyme isoform (P49840 whole entry, canonical isoform): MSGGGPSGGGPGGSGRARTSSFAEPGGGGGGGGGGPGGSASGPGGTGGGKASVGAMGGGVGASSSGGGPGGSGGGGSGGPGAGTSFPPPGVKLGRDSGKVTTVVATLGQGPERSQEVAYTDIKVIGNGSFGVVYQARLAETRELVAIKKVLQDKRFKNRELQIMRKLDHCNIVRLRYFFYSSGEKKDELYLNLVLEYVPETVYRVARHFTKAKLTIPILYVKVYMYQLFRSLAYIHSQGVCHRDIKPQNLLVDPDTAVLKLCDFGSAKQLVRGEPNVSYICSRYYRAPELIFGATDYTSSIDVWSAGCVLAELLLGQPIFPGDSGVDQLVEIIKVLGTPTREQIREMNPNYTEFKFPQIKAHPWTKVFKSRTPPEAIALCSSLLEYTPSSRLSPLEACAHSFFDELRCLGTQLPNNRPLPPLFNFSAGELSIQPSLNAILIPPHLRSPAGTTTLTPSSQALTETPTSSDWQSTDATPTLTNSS
Sequence of p38 MAPKα isoform (MAPK14) (Q16539 whole entry, canonical isoform): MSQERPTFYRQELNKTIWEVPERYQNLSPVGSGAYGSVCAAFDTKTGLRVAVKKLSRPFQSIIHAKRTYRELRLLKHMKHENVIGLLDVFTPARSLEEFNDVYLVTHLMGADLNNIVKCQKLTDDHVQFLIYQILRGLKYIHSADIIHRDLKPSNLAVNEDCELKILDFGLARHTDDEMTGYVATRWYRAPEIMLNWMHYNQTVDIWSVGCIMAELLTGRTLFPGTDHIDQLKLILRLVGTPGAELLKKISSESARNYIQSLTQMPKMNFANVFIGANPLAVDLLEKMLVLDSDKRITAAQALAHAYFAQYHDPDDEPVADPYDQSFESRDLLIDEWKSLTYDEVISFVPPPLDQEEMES
Sequence of p38MAPKγ (MAPK12) (P53778 whole entry): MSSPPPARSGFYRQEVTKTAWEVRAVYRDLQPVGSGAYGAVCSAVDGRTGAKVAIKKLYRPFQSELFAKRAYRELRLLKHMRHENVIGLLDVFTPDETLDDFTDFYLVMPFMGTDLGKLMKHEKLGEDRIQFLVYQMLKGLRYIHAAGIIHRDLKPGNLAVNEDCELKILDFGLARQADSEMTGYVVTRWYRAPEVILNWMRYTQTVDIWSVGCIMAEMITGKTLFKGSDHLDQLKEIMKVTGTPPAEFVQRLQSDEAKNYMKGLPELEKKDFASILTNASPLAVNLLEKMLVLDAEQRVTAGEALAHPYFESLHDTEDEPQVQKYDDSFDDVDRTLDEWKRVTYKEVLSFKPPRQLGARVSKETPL

For the compound `Cc1ccc(-n2nc(C(C)(C)C)cc2NC(=O)Nc2ccc(Oc3ccnc(Nc4ccccc4Cl)n3)c3ccccc23)cc1` [Example 6, 1-(3-(tert-butyl)-1-(p-tolyl)-1H-pyrazol-5-yl)-3-(4-((2-((2-chlorophenyl)amino)pyrimidin-4-yl)oxy)naphthalen-1-yl)urea], the pIC50 in series [1] was 6.79; at p38MAPKγ (MAPK12) it was below 4.79; at GSK 3α enzyme isoform it was below 4.79; in series [2] it was 7.25. Besides, the “HRV IL-8 (BEAS2B) % inhibition” value in series [3] amounted to 77%. Besides, the “HRV CPE (MRC5) % inhibition” value in the series with HRV16 (at 0.04 μg/mL) is recorded as 46%. Moreover, the “MTT Assay Cell viability at time point in d-U937 Cells” value (“MTT Assay Cell viability” for short) with d-U937 cells (4 h) is “−ve (−ve and +ve indicate the value is below and above respectively, the no significant effect threshold defined as 30% inhibition at 1 μg/mL at the time point indicated)”; with d-U937 cells (24 h), “−ve (−ve and +ve indicate the value is below and above respectively, the no significant effect threshold defined as 30% inhibition at 1 μg/mL at the time point indicated)”.

For the compound `COc1cc(Nc2nccc(Oc3ccc(NC(=O)Nc4cc(C(C)(C)C)nn4-c4ccc(C)cc4)c4ccccc34)n2)ccc1O` [Example 25, 1-(3-(tert-butyl)-1-(p-tolyl)-1H-pyrazol-5-yl)-3-(4-((2-((4-hydroxy-3-methoxyphenyl)amino)pyrimidin-4-yl)oxy)naphthalen-1-yl)urea], the pIC50 is 7.11 in series [1], 6.55 against p38MAPKγ (MAPK12), below 5.80 at GSK 3α enzyme isoform and 8.60 in series [2]. In addition, the “HRV CPE (MRC5) % inhibition” value with HRV16 (tested at 0.0008 μg/mL, low cell viability at 0.04 μg/mL) is 33%*. For the same compound, the “MTT Assay Cell viability” value in the series on d-U937 cells (4 h) was “−ve (−ve and +ve indicate the value is below and above respectively, the no significant effect threshold defined as 30% inhibition at 1 μg/mL at the time point indicated)”; with d-U937 cells (24 h), “−ve (−ve and +ve indicate the value is below and above respectively, the no significant effect threshold defined as 30% inhibition at 1 μg/mL at the time point indicated)”. Also, the “Mitosis Assay % inhibition in PBMC Cells” value with PBMC cells (1 μg/mL) was found to be 29.1%; in the series with PBMC cells (5 μg/mL) it was 63.5%.

As to `COc1ccc(-n2nc(C(C)(C)C)cc2NC(=O)Nc2ccc(Oc3ccnc(Nc4ccc(O)cc4)n3)c3ccccc23)cc1` [Example 33, 1-(3-(tert-butyl)-1-(4-methoxyphenyl)-1H-pyrazol-5-yl)-3-(4-((2-((4-hydroxyphenyl)amino)pyrimidin-4-yl)oxy)naphthalen-1-yl)urea], the pIC50 in series [1] is 7.22; on p38MAPKγ (MAPK12), 6.58; at GSK 3α enzyme isoform it was 5.62; in series [2], 8.59. Moreover, the “MTT Assay Cell viability” value is “−ve (−ve and +ve indicate the value is below and above respectively, the no significant effect threshold defined as 30% inhibition at 1 μg/mL at the time point indicated)” with d-U937 cells (4 h); “−ve (−ve and +ve indicate the value is below and above respectively, the no significant effect threshold defined as 30% inhibition at 1 μg/mL at the time point indicated)” in the series on d-U937 cells (24 h). Besides, the “Mitosis Assay % inhibition in PBMC Cells” value in the series on PBMC cells (5 μg/mL) is 67.2%.
